Results reported in article doi:10.1101/2025.03.03.641193, “Trihydroxybenzaldoximes are redox cycling inhibitors of ThDP-dependent DXP synthase” (bioRxiv, 2025).
Where two headings read alike, the source gives them in different places.

Tests used:
[1] = Steady state CV, gold ultramicroelectrode; format: physicochemical; details: Tris pH 8, prepared aerobically then deoxygenated, gold UME
Text: To provide additional evidence for DXPS-dependent reduction of 1, we used electrochemistry to continuously monitor the redox state of 1 during the course of a DXPS reaction. For these experiments, we used a gold ultramicroelectrode, which allowed us to observe the steady-state current corresponding to the reduction of 1, under diffusion control, during the progression of the reaction. […] Using Equation 4 (Electrochemical Measurements, Materials and Methods), it was estimated that the observed pseudo steady state current at −0.50 V corresponded to a one-electron transfer reaction. We used this voltage to interrogate the reduction of 1 during reaction with enzyme and substrates. […] Reactions were initiated in the cell via addition of different combinations of DXPS and substrates which were previously deoxygenated in an anaerobic chamber (Fig 9, S26). […] Returning to the CV, when measured after the chemical reaction transpires, the reduction peak nearly vanished as expected (Fig 9, S28).
Reaction solutions were prepared containing 2 mM MgCl2, 100 mM NaCl, 50 mM Tris pH 8, 1 mM ThDP, and 1 (final 1 mM) under aerobic conditions to allow for oxidation of 1. […] Reactions were initiated and mixed via gas tight Hamilton syringe at ~300 s and measured for at least 200 s. […]

[2] = target: T1, EcDXPS (Escherichia coli, UniProt P77488); assay: Inhibition in the presence of CAT or ascorbate; format: biochemical, E. coli
T1 construct: made in house
Method: Given that CAT prevents nonenzymatic oxidative decarboxylation of pyruvate (Fig S8, S12), but influences the redox state of 1, we evaluated the inhibitory activity of 1 in the presence of CAT (Fig 6). […] In this experiment, 1 was incubated at 25 °C for 5 min in the presence of DXPS, IspC, and either CAT or ascorbate prior to initiation by addition of pyruvate and D-GAP. […] In the presence of ascorbate, 1 is primarily in the reduced form according to NMR (Fig S10).
Reaction solutions were prepared containing EcDXPS (150 nM). Solutions contained either DXPS alone or were supplemented with CAT (0.25 mg/mL) or ascorbate (5 mM). Reaction mixtures were incubated with either water or 1 (100 μM) for 5 min at 25 °C. Reactions were initiated with a mixture of pyruvate (110 μM) and GAP (60 μM), or water for background controls. Immediately following initiation, NADPH depletion was monitored at 340 nm at 25 °C for 7.5 min with a 14 second time interval. Initial velocities of DXP formation were measured as described above and arithmetically corrected for background rates and normalized to the DXPS only control reaction for comparison. Reactions were performed in triplicate, and % inhibition was determined arithmetically from initial velocities. Reported standard errors of the mean for Kis are calculated from three replicates.

[3] = target: T2, DrDXPS (Deinococcus radiodurans, UniProt Q9RUB5); assay: DXPS-IspC coupled assay, DrDXPS; format: biochemical, Deinoccocus radiodurans
T2 construct: made in house
Method: Inhibitory activity of compounds against DXPS were monitored via a continuous spectrophotometric coupled assay with DXPS and IspC as previously described.[41],[42] Briefly, Reaction mixtures containing HEPES (100 mM, pH 8.0), MgCl2 (2 mM), NaCl (5 mM), ThDP (1 mM), BSA (1 mg/mL), DXPS (125–500 nM), IspC (1.7 μM), NADPH (160 μM), DMSO (5%, v/v), and inhibitor (0–200 μM) were preincubated at 25 °C (or chamber temperature 25–30 °C) for 5 min. Enzymatic reactions were initiated via the addition of 20 μL of a 10x substrate mix for a final well volume of 200 μL. Reactions were performed in triplicate unless otherwise noted. See the following sections for details and modifications.
When varying pyruvate (0–500 μM), GAP was maintained at 50 μM (3 mM for R478A). When varying GAP (0–500 μM), pyruvate was maintained at 500 μM. The following [DXPS] were used when varying 1: WT EcDXPS, R478A, H431A, D427A (200 nM), R99A (500 nM), WT DrDXPS, WT PaDXPS (150 nM). Analogs 3 and 4 were tested using WT EcDXPS (150 nM). Reactions were incubated and initiated as described above. Immediately following initiation, NADPH depletion was monitored at 340 nm at 25 °C for 7–10 min with a 14–20 second time interval. Initial velocities of DXP formation were determined from the linear portion of the NADPH decay. Initial velocities were arithmetically corrected for background for compound 4. Initial velocities were plotted vs. substrate concentration, and the data were fit to equation 1 (mixed model), 2 (competitive), or 3 (uncompetitive) based on the calculated α value and goodness of fit in GraphPad Prism. Reported standard errors of the mean for Kis are calculated from three replicates.

Which results are given for `ON=Cc1cc(O)c(O)cc1O` [compound 1, 2,4,5-trihydroxybenzaldoxime]?
reduction half-height potential (steady state CV) [1]: ~ −0.35 V; inhibition at 100 µM ([2]; read-out: %Inhibition at 100 μM 1, Ascorbate 5 mM, aerobic, 100 μM): 23%; inhibition at 100 µM ([2]; read-out: %Inhibition at 100 μM 1, CAT 0.25 mg/mL, aerobic, 100 μM): 80%; inhibition at 100 µM ([2]; read-out: %Inhibition at 100 μM 1, Control (DXPS alone), aerobic, 100 μM): 80 ± 0.5%; Ki [3]: 2800 ± 200 nM; MOI varying D-GAP ([3]; DrDXPS): competitive; MOI varying pyruvate ([3]; DrDXPS): uncompetitive; Ki relative to EcDXPS ([3]; DrDXPS, varying either pyruvate or D-GAP): ≤ 2 fold
